Key:
[1] = test system: Escherichia coli DH5@/pSodaLux (EBHJ1) [KCTC 10098BP]; assay type: cell-based; details: for bioluminescence in dependence on concentration of the toxic material: sodA promoter::LuxCDABE reporter, 96-well luminometer, 30° C., 0-2048 ppm, FIGS. 3-6
Method: The bioluminescent bacteria Escherichia coli DH5@/pSodaLux (EBHJ1) were cultured in a shaking incubator of 30° C. at 250 rpm, in the LB medium [DIFCO, USA] containing 25 μg/ml of kanamycin [Sigma Co., USA] until the OD reaches 0.8 at 600 nm. Then, 2 ml of the culture was cultured for about 4 hr in 100 ml of LB medium. […] The bioluminescence was measured at 30° C. with a 96-well luminometer [DYNEX Technologies, USA].
The bioluminescence is measured in BL (bioluminescence intensity). Increase in bioluminescence can be determined by comparing the bioluminescence when toxic material was injected (sample bioluminescence) and that when no toxic material was injected (control bioluminescence). The RBL (relative bioluminescence) is calculated by the following Equation 1. [formula]

[2] = test system: Escherichia coli DH5@/pSodaLux (EBHJ1) [KCTC 10098BP]; assay: Growth inhibition of the recombinant bioluminescent bacteria; assay type: cell-based; details: around 50 ppm

## [Cl][Cd][Cl] [cadmium chloride]
[1]
  bioluminescence in dependence on concentration of the toxic material: the bioluminescence increased with the concentration

## OO [hydrogen peroxide]
[1]
  bioluminescence in dependence on concentration of the toxic material: proportionally increasing bioluminescence

## C[n+]1ccc(-c2cc[n+](C)cc2)cc1 [paraquat dichloride]
[1]; around 50 ppm
  bioluminescence: substantial bioluminescence
[1]
  bioluminescence in dependence on concentration of the toxic material: proportionally increasing bioluminescence
[2]
  growth inhibition: little growth inhibition
